Values of other authors, collected in US6955827B2, “Method of controlling release of antimicrobial agents in chewing gum” (Wm. Wrigley Jr. Company, priority 1997, dated 2005).

Conditions: at 25° C.

water solubility | Structure (SMILES)
50% | N=C(NCCCCCCNC(=N)NC(=N)Nc1ccc(Cl)cc1)NC(=N)Nc1ccc(Cl)cc1.O=C(O)[C@H](O)[C@@H](O)[C@H](O)[C@H](O)CO.O=C(O)[C@H](O)[C@@H](O)[C@H](O)[C@H](O)CO [Chlorhexidine digluconate, chlorhexidine digluconate]
about 0.05% | CCCCCCc1ccc(O)cc1O [Hexylresorcinol, hexylresorcinol]
about 0.05% | Oc1cc(Cl)ccc1Oc1ccc(Cl)cc1Cl [Triclosan, 2,4,4-trichloro-2-hydroxydiphenyl ether]

Structure (SMILES) | water solubility
CCCCCCCCCCCCCCCC[n+]1ccccc1 [Cetylpyridinium chloride, cetylpyridinium chloride] | 33%
